# Measured values taken from patent US10017522B2, “Alpha helix mimetics and methods relating thereto” (PRISM BioLab Co., Ltd., priority 2009, dated 2018).
# System: Wnt signaling pathway
# Experiment: Reporter gene assay (SuperTOPFLASH luciferase, LiCl stimulated, Hek-293 STF1.1 cells)
# Format: cell-based
# Settings: Homo sapiens, HEK293; at the concentration of 10 μM; stably transfected cell line Hek-293, STF1.1; 20 mM LiCl medium added, 24 hours; read-out: inhibitory activity determined by reporter gene assay
# Description: Screening for inhibitory action of the Wnt signaling pathway can be carried out according to the following procedure using the stably transfected cell line Hek-293, STF1.1. • Growth Medium: DMEM, 10% FBS, Pen-Strep, supplemented with 400 μg/mL G418 to maintain selection of SuperTOPFLASH driven Luciferase gene • 1. On the day prior to assay, split cells into a white opaque 96-well plate at 20,000 cells per well in 200 μl of complete growth medium • 2. Incubate the plate overnight at 37° C., 5% CO2 and allow the cells to attach • 3. Next day, prepare the inhibitors to be tested in complete growth medium, without G418, at 2× the desired final concentration (all conditions are done in duplicates) • 4. Carefully remove the old medium from each well using a multiple pipettor • 5. […] Read plate on the Packard TopCount
# In the tables, the compounds having inhibitory activity more than 50% at the concentration of 10 microM (μM) determined by reporter gene assay are shown below.
# Screening for inhibitory action of the Wnt signaling pathway was carried out according to the following procedure using the stably transfected cell line Hek-293, STF1.1 • Growth Medium: DMEM, 10% FBS, Pen-Strep, supplemented with 400 μg/mL G418 to maintain selection of SuperTOPFLASH driven Luciferase gene • 1. […] Read plate on the Packard TopCount
smiles,measurement,value
"CN1[C@@H](Cc2ccc(O)cc2)C(=O)N(Cc2cccc3ccccc23)CC2N(C(=O)NCc3ccccc3)CCC(=O)N21 (stereo partly drawn) [Example I-268, (2S)—N-benzyl-2-(4-hydroxybenzyl)-1-methyl-4-(naphthalen-1-ylmethyl)-3,9-dioxooctahydropyrimido[1,2-b][1,2,5]triazepine-6(7H)-carboxamide]",inhibition at 10 µM,≥ 50%
